Experimental data reported in patent publication US6514949B1, “Method compositions for treating the inflammatory response” (University of Virginia Patent Foundation, priority 1994, dated 2003).

Tests used:
[1] = system: TNFα-stimulated adherent human neutrophils; assay: TNFα-stimulated superoxide release of PMN adherent to fibrinogen coated surface; type: cell-based; details: for superoxide release of TNFα-stimulated adherent PMN: 300 nM combined with rolipram (100 nM), p<0.05, FIG. 5
Description: TNFα-stimulated superoxide release of PMN adherent to a matrix protein (fibrinogen) coated surface. Human PMN (1×10^6/ml) from Ficoll-Hypaque separation were incubated for 90 minutes in 1 ml of Hanks balanced salt solution containing 0.1% human serum albumin, cytochrome c (120 μM), and catalase (0.062 mg/ml) in the presence and absence of rhTNF (1 U/ml), WRC-0474[SHA 211] (10 nM) and rolipram (100 nM) in a tissue culture well which had been coated overnight with human fibrinogen. SOD (200 U/ml) was added to matched samples. The supernatants were iced and centrifuged (2000 g×10 minutes) to remove any remaining suspended cells, and the optical density of the supernatants were read at 550 nm against the matched SOD samples, and the nmoles of SOD-inhibitable superoxide released in 90 minutes were calculated.
Additional effects of adenosine A2A agonists on adherent human neutropbil oxidative activity. The bioactivity of test compounds WRC-0474[SHA 211], WRC-0470, WRC-0090 and WRC-0018 were evaluated according to the following method modified from Sullivan, G. W. et al., Int. J. Immunopharmacol, 17, 793-803 (1995). Neutrophils (1×10^6/ml from Ficoll-Hypaque separation were incubated for 90 minutes in 1 ml of Hanks balanced salt solution containing 0.1% human serum albumin, cytochrome c (120 μM) and catalase (0.062 mg/ml in the presence and absence of rhTNFα (1 U/ml), WRC-0474[SHA 211], WRC-0470, WRC-0090 and WRC-0018 (3-300 nM), and rolipram (100 nM) in a tissue culture well which had been coated overnight with human fibrinogen. The supernatants were iced and centrifuged (200 g×10 min) to remove any remaining suspended cells, and the optical densities of the supernatants were read at 550 nm against matched superoxide dismutase (SOD) (200 U/ml) samples. The nmoles of SOD=inhabitable superoxide released in 90 min were calculated.

[2] = system: TNFα-stimulated adherent neutrophil; assay: PMN degranulation (adherent cells), lysozyme release; type: cell-based, human; details: WRC-0470 300 nM with rolipram 300 nM; P=0.027
Description: PMN degranulation (adherent cells). The following methods were adapted from Sullivan, G. W. and G. L. Mandell, Infect. Inumun., 30, 272-280 (1980). […] The supernatant fluids with any suspended neutrophils were harvested following incubation, centrifuged (2000 ×g for 10 min) to remove any suspended cells and the cell-free supernatants frozen. Release of lysozyme, a component of neutrophil primary and secondary granules was assayed. Lysis of a suspension of Micrococcus lysodeikticus by the “cell-free supernatant” was measured by spectrophotometric analysis ([…]) to determine the amount of release of granule contents to the surrounding medium.

[3] = system: neutrophils in whole blood; assay: PMN oxidative activity in whole blood; type: cell-based
Description: PMN oxidative activity in whole blood. The following methods were adapted from Rothe, G. A. et al., J. Immunol. Meth., 138, 133-135 (1991). Heparinized whole blood (0.8 ml) was incubated (37°; 30 min) with adenosine deaminase (ADA, 1 U/ml), catalase (14,000 U/ml), ±dihydrorhodamine 123, ±WRC-0470 (3-300 nM), ±rolipram (300 nM) and ±TNFα (10 U/ml). The primed blood samples were stimulated with fMLP (15 min), then iced, the red blood cells lysed with FACS lysing solution (Becton-Dickinson, San Jose, Calif.), washed and the leukocytes resuspended in phosphate-buffered saline (PBS). These samples containing mixed leukocytes were gated for neutrophils by forward and side scatter and the fluorescence of 10,000 neutrophils measured in the FL1 channel of a FACScan (Beckton-Dickinson) fluorescence-activated cell sorter.

adherent human monocytes = assay: Production of TNFα by purified human adherent monocytes; type: cell-based
Description: Production of TNFα by purified human adherent monocytes. A monocyte rich monolayer (>95% monocytes) was prepared by incubating 1 ml of the mononuclear leukocyte fraction (5×10^5/ml) from a Ficoll-Hypaque separation in wells of a 24 well tissue culture plate (1 hr; 37° C.; 5% CO2). […] The samples were incubated for 4 hr (37° C.; 5% CO2) and the supernatants harvested. Any suspended cells were removed by centrifugation and the cell-free samples frozen (−70° C.). TNFα was assayed in the cell-free supernatants by an ELISA kit (Cistron Biotechnology, Pine Brook, N.J.).

Adult wistar rats = assay: Rat model of inflammation (bacterial meningitis): CSF WBC pleocytosis and blood-brain barrier permeability; type: in vivo
Description: Effects of WRC-0470 and rolipram on the extravasation of white blood cells in a rat model of inflammation. Adult wistar rats (approximately 200 g) were anesthetized with intermuscular injections of ketamine and xylazine. Bacteria meningitis (BM) was introduced via intracistemal inoculation of either E. coli strain 026:B6LPS (200 ng), cytokines (IL-1 and TNFα, or LPS plus cytokines). The animals were then infused with rolipram and/or […] over the duration of the experiment using a Harvard pump. CSF (cerebrospinal fluid) and blood was then sampled at 4 h post-inoculation and alterations in BBBP (blood-brain barrier permeability) and WBC (white blood cell) counts were determined. CSF and WBC concentrations were determined with standard hemacytometer methods. For assessment of % BBBP, rats were given an intravenous injection of 5 μCi 125I-labeled bovine serum albumin concomitant with intracistemal inoculation. Equal samples of CSF and blood were read simultaneously in a gamma counter and after subtraction of background radioactivity, % BBBP was calculated by the following formula: % BBBP=(cpm CSF/cpm blood)×100. All statistical tests were performed using Instat biostatistical software to compare the post-inoculation samples of experimental rats with the control rats. The statistical tests used to generate p-values were Student's t-test and ANOVA.

TNFα-stimulated PMN = assay: TNF-stimulated PMN adherence to a fibrinogen-coated surface; type: cell-based, human
Description: PMN adherence to fibrinogen was measured as follows as adapted from Hanlon, J. Leukocyte Biol., 50, 43 (1991). Twenty-four well flat-bottomed tissue culture plates were incubated (37° C.) overnight with 0.5 ml of fibrinogen (5 mg/ml) dissolved in 1.5% NaHCO3. The plates were emptied and each well washed 2× with 1 ml of normal saline. The wells were then filled with 1 ml of HBSS-0.1% human serum albumin containing PMN (1×10^6/ml) with and without rhTNFα (1 U/ml), adenosine deaminase (ADA) (1 U/ML), WRC-0474[SHA 211] (10 nM), CGS21680 (30 nM), adenosine (100 nM) and rolipram (100 nM). The plates were incubated for 90 minutes at 37° C. in 5% CO2. Following incubation the tissue culture wells were washed free of non-adherent cells with normal saline. The adherent monolayer of PMN was lysed with 0.1% triton-X, the amount of lactic dehydrogenase (LDH) released from the monolayer assayed (LDH kit, Sigma Co., St. Louis, Mo.), and compared to a standard curve relating the LDH content to PMN numbers.

Nc1nc(N/N=C/C2CCCCC2)nc2c1ncn2[C@@H]1O[C@H](CO)[C@@H](O)[C@H]1O [WRC-0470]
superoxide release of TNFα-stimulated adherent PMN [1]: synergistically decreased superoxide release
rank of activity among the four A2A agonists, adherent PMN oxidative activity ([1]; in the presence of rolipram): most active
decrease of TNFα-stimulated adherent neutrophil degranulation [2]: 67%
neutrophil oxidative activity in whole blood ([3]; 30-300 nM with rolipram 300 nM, fMLP or TNFα then fMLP): decreased neutrophil oxidative activity synergistically
oxidative activity of TNFα-primed fMLP-stimulated neutrophils in whole blood ([3]; FIG. 6): decreased oxidative activity
endotoxin-stimulated adherent monocyte production of TNFα (adherent human monocytes; ±rolipram, P<0.050, FIGS. 7A and 7B): decreased
blood-brain barrier permeability (% BBBP) (Adult wistar rats; 1.2 μg/kg/hr, rebound effect): returned to control
blood-brain barrier permeability (% BBBP) (Adult wistar rats; 0.01-0.015 μg/kg/hr, p<0.05 as compared to control, FIG. 9): significant response
WBC migrated into the sub-arachnoid space (CSF WBC) (Adult wistar rats; WRC-0470 0.1 μg/kg/hr in combination with rolipram 0.001 μg/kg/hr, FIG. 11): 200±70 WBC/μl
WBC migrated into the sub-arachnoid space (CSF WBC) (Adult wistar rats; WRC-0470 alone (0.1 μg/kg/hr), p<0.050 vs combination): 600±308 WBCs/μl
CSF WBC pleocytosis (Adult wistar rats; infusion 0.005-1.2 μg/kg/hr, p<0.05 as compared to control, FIG. 8): inhibited pleocytosis

Nc1ncnc2c1ncn2[C@@H]1O[C@H](CO)[C@@H](O)[C@H]1O [adenosine]
TNF-stimulated PMN adherence (TNFα-stimulated PMN; 100 nM, p=0.009 compared to TNF in the presence of ADA): 28 % adhered

Nc1nc(NCCc2ccc(O)cc2)nc2nc(-c3ccco3)nn12 [ZM241385, 4-(2-[7-amino-2-(2-furyl)[1,2,4]-triazolo[2,3a]-[1,3,5]trazinyl-amino]ethyl)-phenol, reference compound]
antagonism of the effect of WRC-0470 (300 nM) combined with rolipram (300 nM) on TNFα release from monocytes (adherent human monocytes; ZM241385 50 nM, p=0.020, FIG. 7B): significantly inhibited the effect of WRC-0470

Cc1ccc(CCOc2nc(N)c3ncn([C@@H]4O[C@H](CO)[C@@H](O)[C@H]4O)c3n2)cc1 [WRC-0090]
superoxide release of TNFα-stimulated adherent PMN [1]: synergistically decreased superoxide release

CCNC(=O)[C@H]1O[C@@H](n2cnc3c(N)nc(NCCc4ccc(CCC(=O)O)cc4)nc32)[C@H](O)[C@@H]1O [CGS21680]
TNF-stimulated PMN adherence (TNFα-stimulated PMN; 30 nM, in the presence of ADA, TNF control 38%, p=0.004): 30 % adhered

COc1ccc(C2CNC(=O)C2)cc1OC1CCCC1 (centres unmarked) [rolipram, 4-(3-cyclopentyloxy-4-methoxyphenyl)-2-pyrrolidone, reference compound]
alterations of BBBP (Adult wistar rats; 0.002 μg/kg/hr): no significant effect
inhibition of CSF pleocytosis (Adult wistar rats; 0.01 μg/kg/hr, p<0.05, FIG. 10): 99%
alterations of BBBP (Adult wistar rats; 0.01 or 0.005 μg/kg/hr, p<0.05): significant inhibition
WBC migrated into the sub-arachnoid space (CSF WBC) (Adult wistar rats; rolipram alone (0.001 μg/kg/hr), p<0.050 vs combination): 1,670±1,273 WBC/μl

Nc1nc(OCCc2ccc3ccccc3c2)nc2c1ncn2[C@@H]1O[C@H](CO)[C@@H](O)[C@H]1O [WRC-0018]
superoxide release of TNFα-stimulated adherent PMN [1]: synergistically decreased superoxide release
